Structures are written as SMILES. Where “and” joins values, the source holds several entries; their conditions need not be identical. Equal entries are not always repeated.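 All cell lines were grown in 96-well plates and treated with compound for 48 hours. GI50 marks 50% less growth. TGI: concentration producing complete growth inhibition.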

Drawing on PubChem BioAssay (NCI), this text covers TGI and GI50 for eight compounds.

Among the test systems are CAKI-1 renal; NCI-H522 lung; COLO 205 colon; MDA-MB-231 breast; SK-MEL-28 melanoma; SK-MEL-2 melanoma; SK-MEL-5 melanoma; SK-OV-3 ovarian; HCT-116 colon; CCRF-CEM leukemia.
Common to all, as to experiment: NCI tumour cell line growth inhibition, 48 h

For `CC(C)=CCC(OC(=O)C=C(C)C)C1=CC(=O)c2c(O)ccc(O)c2C1=O` (configuration not stated), the TGI was 3.12 µM and 2 µM with CAKI-1 renal; 1.84 µM and 0.231 µM in the assay on NCI-H522 lung; 2.12 µM and 1.37 µM in the assay with COLO 205 colon; 3.89 µM with MDA-MB-231 breast; 2.52 µM and 2.67 µM in the assay with SK-MEL-28 melanoma; 12.1 µM and 5.85 µM with SK-MEL-2 melanoma. Besides, the TGI in the assay on SK-MEL-5 melanoma was 14.4 µM and 1.59 µM; with SK-OV-3 ovarian, 49.8 µM and 12.4 µM; in the assay with HCT-116 colon, 2.68 µM and 1.04 µM. Further, the GI50 in the assay with NCI-H522 lung was 0.414 µM and 0.104 µM; with COLO 205 colon it was 0.751 µM; with MDA-MB-231 breast, 1.63 µM; in the assay with SK-MEL-28 melanoma, 1.01 µM; with SK-MEL-2 melanoma, 2.97 µM; in the assay on SK-MEL-5 melanoma, 4.15 µM. For the same compound, the GI50 in the assay with SK-OV-3 ovarian was 21.2 µM; with HCT-116 colon, 0.63 µM; in the assay on CCRF-CEM leukemia, 0.0241 µM.
Take `O=C(NCCc1ccccn1)OCc1nc2nc(Cl)nc(N3CCOCC3)c2[nH]1`: the GI50 with CAKI-1 renal is 1.36 µM; in the assay with NCI-H522 lung, 1.93 µM; with COLO 205 colon it was 2.44 µM; in the assay on MDA-MB-231 breast it was 1.6 µM; in the assay with SK-MEL-28 melanoma it was 1.67 µM; in the assay with SK-MEL-2 melanoma, 4.16 µM. The GI50 was 2.1 µM in the assay on SK-MEL-5 melanoma, 6.11 µM in the assay with SK-OV-3 ovarian, 0.816 µM with HCT-116 colon and 2.18 µM with CCRF-CEM leukemia. Moreover, the TGI with CAKI-1 renal came out at 3.04 µM; in the assay with NCI-H522 lung it was 4.96 µM; in the assay on COLO 205 colon, 6.12 µM; in the assay with MDA-MB-231 breast, 3.17 µM; in the assay with SK-MEL-28 melanoma, 3.32 µM; in the assay with SK-MEL-2 melanoma it was 15.6 µM. For the same compound, the TGI in the assay with SK-MEL-5 melanoma was 4.54 µM; in the assay on SK-OV-3 ovarian, 19.5 µM; with HCT-116 colon it was 2.09 µM; in the assay on CCRF-CEM leukemia, 9.74 µM.
Take `Cc1c(-c2ccnc(N)n2)c2c(n1Cc1ccccc1)C(=O)c1ccccc1C2=O`: the GI50 is 4.66 µM in the assay with CAKI-1 renal; more than 100 µM in the assay with NCI-H522 lung; 15.5 µM in the assay on COLO 205 colon; 1.73 µM in the assay with MDA-MB-231 breast; 17.3 µM with SK-MEL-28 melanoma; 11.3 µM in the assay with SK-MEL-2 melanoma. The GI50 is 12.8 µM in the assay with SK-MEL-5 melanoma, 18.2 µM in the assay on SK-OV-3 ovarian, 3.7 µM in the assay on HCT-116 colon and more than 100 µM in the assay with CCRF-CEM leukemia. Besides, the TGI with CAKI-1 renal was 52.9 µM; with NCI-H522 lung, more than 100 µM; in the assay with COLO 205 colon, 43.9 µM; in the assay on MDA-MB-231 breast, 30.2 µM; in the assay with SK-MEL-28 melanoma, more than 100 µM; in the assay with SK-MEL-2 melanoma, 47.7 µM. The TGI was 27.8 µM in the assay with SK-MEL-5 melanoma, 77.4 µM with SK-OV-3 ovarian, 16.6 µM with HCT-116 colon and more than 100 µM in the assay with CCRF-CEM leukemia.
Regarding `Cc1nc(Nc2ccccn2)sc1C(=O)/C=C/c1ccc(Cl)cc1`, the GI50 in the assay with CAKI-1 renal was 0.46 µM; in the assay on NCI-H522 lung it was 0.241 µM; in the assay with COLO 205 colon, 0.322 µM; with MDA-MB-231 breast it was 0.366 µM; in the assay on SK-MEL-28 melanoma, 2.19 µM; in the assay with SK-MEL-2 melanoma it was 1.36 µM. Also, the GI50 in the assay with SK-MEL-5 melanoma is 0.339 µM; in the assay with SK-OV-3 ovarian it was 0.494 µM; in the assay on HCT-116 colon, 0.381 µM; with CCRF-CEM leukemia it was 0.445 µM. In addition, the TGI was 13.4 µM in the assay on CAKI-1 renal; 1.35 µM in the assay on COLO 205 colon; 3.58 µM with MDA-MB-231 breast; more than 100 µM with SK-MEL-28 melanoma; more than 100 µM in the assay with SK-MEL-2 melanoma; 1.43 µM in the assay with SK-MEL-5 melanoma. For the same compound, the TGI was more than 100 µM with SK-OV-3 ovarian, more than 51.8 µM in the assay on HCT-116 colon and more than 100 µM in the assay on CCRF-CEM leukemia.
For `O=C([O][Sn]([O]C(=O)c1ccccn1)([c]1ccccc1)[c]1ccccc1)c1ccccn1`, the GI50 was 1.61 µM with CAKI-1 renal; 0.14 µM in the assay with NCI-H522 lung; 6.28 µM in the assay on COLO 205 colon; 5.29 µM in the assay on MDA-MB-231 breast; 3.4 µM with SK-MEL-28 melanoma; 2.57 µM in the assay on SK-MEL-2 melanoma. For the same compound, the GI50 was 12.1 µM with SK-MEL-5 melanoma, 55.5 µM with SK-OV-3 ovarian, 1.71 µM in the assay on HCT-116 colon and 0.565 µM in the assay on CCRF-CEM leukemia. Besides, the TGI in the assay with CAKI-1 renal is 3.98 µM; in the assay with NCI-H522 lung it was 0.291 µM; with COLO 205 colon it was 19.4 µM; in the assay with MDA-MB-231 breast, 18.4 µM; with SK-MEL-28 melanoma, 13.3 µM; in the assay on SK-MEL-2 melanoma, 6.26 µM. In addition, the TGI in the assay with SK-MEL-5 melanoma was 24.4 µM; in the assay on SK-OV-3 ovarian, more than 100 µM; in the assay with HCT-116 colon, 3.11 µM; in the assay on CCRF-CEM leukemia it was 2.95 µM.
For `CC1=Nc2ccccc2/C1=C\c1c(C)[nH]c2ccccc12`, the TGI turned out to be 29.1 µM in the assay with CAKI-1 renal; 23.6 µM in the assay on NCI-H522 lung; 53.2 µM with COLO 205 colon; 33.3 µM with MDA-MB-231 breast; 37.9 µM in the assay on SK-MEL-28 melanoma; 47.3 µM with SK-MEL-2 melanoma. The TGI was 28.1 µM in the assay on SK-MEL-5 melanoma, 51.8 µM in the assay on SK-OV-3 ovarian, 24.2 µM in the assay with HCT-116 colon and more than 100 µM in the assay on CCRF-CEM leukemia.
Consider `O=C1CC(c2[nH]nc3ccccc23)C(=O)N1c1ccccc1` (configuration not stated), for which the TGI in the assay with CAKI-1 renal, with NCI-H522 lung, with COLO 205 colon, in the assay with MDA-MB-231 breast, in the assay on SK-MEL-28 melanoma and in the assay on SK-MEL-2 melanoma was more than 100 µM in each case. The TGI in the assay on SK-MEL-5 melanoma was more than 100 µM; in the assay on SK-OV-3 ovarian it was more than 100 µM; with HCT-116 colon, more than 100 µM; in the assay on CCRF-CEM leukemia, more than 71.8 µM.
Regarding `C=C1CCC2(C#N)[C@H]3[C@H](CC[C@@H]2C)[C@@H](C)C[C@@H](CC(C)(C)NC(=O)CN2CCC2=O)[C@H]13` (some centres not stated), the GI50 was 10.1 µM in the assay on CAKI-1 renal; 13.5 µM in the assay on NCI-H522 lung; 2.56 µM with COLO 205 colon; 7.97 µM in the assay with MDA-MB-231 breast; 10.2 µM in the assay with SK-MEL-28 melanoma; 15.8 µM in the assay with SK-MEL-2 melanoma. Further, the GI50 in the assay with SK-MEL-5 melanoma is 4.24 µM; in the assay on SK-OV-3 ovarian, 15.8 µM; in the assay with HCT-116 colon, 3.43 µM; in the assay on CCRF-CEM leukemia, 12.8 µM. Further, the TGI is 28.8 µM in the assay with CAKI-1 renal; 45.6 µM in the assay on NCI-H522 lung; 13 µM in the assay on COLO 205 colon; 44.3 µM with MDA-MB-231 breast; 23 µM in the assay with SK-MEL-28 melanoma; 35.6 µM in the assay on SK-MEL-2 melanoma. Besides, the TGI in the assay with SK-MEL-5 melanoma turned out to be 16.2 µM; in the assay on SK-OV-3 ovarian, 50.2 µM; in the assay on HCT-116 colon, 16.2 µM; with CCRF-CEM leukemia, 80.3 µM.
